Experimental data taken from PMC5218480 (PLoS ONE, 2017).

Tested on: MV-4-11 cells
Test: Gene expression microarray analysis (Affymetrix PrimeView) and GSEA
Assay type: cell-based, human
Parameters: RFU PODN (11730768_x_at) / Fold change /veh PODN (11730768_x_at) / RFU LINC00158 (11744669_a_at) / Fold change /veh LINC00158 (11744669_a_at) / RFU DUSP10 (11751237_a_at) / Fold change /veh DUSP10 (11751237_a_at) / RFU ID3 (11757404_x_at) / Fold change /veh ID3 (11757404_x_at) / RFU PLEKHG5 (11737974_s_at) / Fold change /veh PLEKHG5 (11737974_s_at) / RFU LRRC4B (11730491_at) / Fold change /veh LRRC4B (11730491_at) / RFU GIMAP4 (11747438_a_at) / Fold change /veh GIMAP4 (11747438_a_at) / RFU KRT8 (11758183_x_at) / Fold change /veh KRT8 (11758183_x_at) / RFU CNN1 (11734310_a_at) / Fold change /veh CNN1 (11734310_a_at) / RFU VPS37D (11726825_at) / Fold change /veh VPS37D (11726825_at) / RFU C10orf10 (11716522_x_at) / Fold change /veh C10orf10 (11716522_x_at) / RFU KIR2DL2 /// KIR2DL4 /// KIR2DL5A /// KIR2DL5B /// KIR2DS1 /// KIR2DS2 /// KIR2DS3 /// KIR2DS4 /// KIR3DL3 /// KIR3DL3 /// KIR3DS1 (11738374_at) / Fold change /veh KIR2DL2 /// KIR2DL4 /// KIR2DL5A /// KIR2DL5B /// KIR2DS1 /// KIR2DS2 /// KIR2DS3 /// KIR2DS4 /// KIR3DL3 /// KIR3DL3 /// KIR3DS1 (11738374_at) / RFU C1QL1 (11718748_at) / Fold change /veh C1QL1 (11718748_at) / RFU TMPRSS4 (11747572_a_at) / Fold change /veh TMPRSS4 (11747572_a_at) / RFU HAMP (11756126_x_at) / Fold change /veh HAMP (11756126_x_at) / RFU RNFT2 (11725882_a_at) / Fold change /veh RNFT2 (11725882_a_at) / RFU NR4A2 (11747474_a_at) / Fold change /veh NR4A2 (11747474_a_at) / RFU ABCC12 (11746883_a_at) / Fold change /veh ABCC12 (11746883_a_at) / RFU TMEM136 (11760407_x_at) / Fold change /veh TMEM136 (11760407_x_at) / RFU CLDN22 /// WWC2 (11732394_at) / Fold change /veh CLDN22 /// WWC2 (11732394_at) / RFU HLA-DPB1 (11760878_x_at) / Fold change /veh HLA-DPB1 (11760878_x_at) / RFU SPINT1 (11716480_a_at) / Fold change /veh SPINT1 (11716480_a_at) / RFU GAP43 (11754022_s_at) / Fold change /veh GAP43 (11754022_s_at) / RFU A4GNT (11735810_at) / Fold change /veh A4GNT (11735810_at) / RFU PRB3 (11715151_x_at) / Fold change /veh PRB3 (11715151_x_at) / RFU TUBB4B (11761932_at) / Fold change /veh TUBB4B (11761932_at) / RFU CAPN14 (11732068_a_at) / Fold change /veh CAPN14 (11732068_a_at) / RFU TMCC2 (11721928_a_at) / Fold change /veh TMCC2 (11721928_a_at) / RFU IRGQ (11745062_a_at) / Fold change /veh IRGQ (11745062_a_at) / RFU FAM174B (11720279_a_at) / Fold change /veh FAM174B (11720279_a_at) / RFU TMPRSS4 (11748680_a_at) / Fold change /veh TMPRSS4 (11748680_a_at) / RFU FAM212B (11763350_a_at) / Fold change /veh FAM212B (11763350_a_at) / RFU PLEKHG5 (11743358_a_at) / Fold change /veh PLEKHG5 (11743358_a_at) / RFU ZSCAN30 (11745921_a_at) / Fold change /veh ZSCAN30 (11745921_a_at) / RFU CMKLR1 (11741424_a_at) / Fold change /veh CMKLR1 (11741424_a_at) / RFU LOC101060620 /// MAPK8IP1 (11723275_at) / Fold change /veh LOC101060620 /// MAPK8IP1 (11723275_at) / RFU SPTSSB (11747773_x_at) / Fold change /veh SPTSSB (11747773_x_at) / RFU PRSS12 (11739890_at) / Fold change /veh PRSS12 (11739890_at) / RFU BIN1 (11741810_x_at) / Fold change /veh BIN1 (11741810_x_at) / RFU WNT11 (11732464_a_at) / Fold change /veh WNT11 (11732464_a_at) / RFU C10orf10 (11716521_a_at) / Fold change /veh C10orf10 (11716521_a_at) / RFU C5orf56 (11738089_at) / Fold change /veh C5orf56 (11738089_at) / RFU CYB561 (11721691_x_at) / Fold change /veh CYB561 (11721691_x_at) / RFU ANKRD19P (11752326_a_at) / Fold change /veh ANKRD19P (11752326_a_at) / RFU OR2T12 /// OR2T33 /// OR2T8 (11738714_s_at) / Fold change /veh OR2T12 /// OR2T33 /// OR2T8 (11738714_s_at) / RFU VCAN (11748164_a_at) / Fold change /veh VCAN (11748164_a_at) / RFU JSRP1 (11732532_at) / Fold change /veh JSRP1 (11732532_at) / RFU KRTAP10-11 (11738290_x_at) / Fold change /veh KRTAP10-11 (11738290_x_at) / RFU MYO3A (11730013_a_at) / Fold change /veh MYO3A (11730013_a_at) / RFU EBF3 (11725865_a_at) / Fold change /veh EBF3 (11725865_a_at) / RFU CAMK2N1 (11719241_x_at) / Fold change /veh CAMK2N1 (11719241_x_at) / RFU C5orf56 (11738088_a_at) / Fold change /veh C5orf56 (11738088_a_at) / RFU OLFML3 (11715873_a_at) / Fold change /veh OLFML3 (11715873_a_at) / RFU LOC100653217 /// NTM (11731650_a_at) / Fold change /veh LOC100653217 /// NTM (11731650_a_at) / RFU MAPK11 (11762145_a_at) / Fold change /veh MAPK11 (11762145_a_at) / RFU FIZ1 (11724087_x_at) / Fold change /veh FIZ1 (11724087_x_at) / RFU OASL (11726364_x_at) / Fold change /veh OASL (11726364_x_at) / RFU SOX15 (11748057_x_at) / Fold change /veh SOX15 (11748057_x_at) / RFU CD79A (11719716_a_at) / Fold change /veh CD79A (11719716_a_at) / RFU HIST1H1D (11736915_at) / Fold change /veh HIST1H1D (11736915_at) / RFU CASKIN2 (11723855_a_at) / Fold change /veh CASKIN2 (11723855_a_at) / RFU LOC730098 (11760151_x_at) / Fold change /veh LOC730098 (11760151_x_at) / RFU OR4N2 (11742367_at) / Fold change /veh OR4N2 (11742367_at) / RFU PRRT2 (11749266_a_at) / Fold change /veh PRRT2 (11749266_a_at) / RFU SNX32 (11753110_a_at) / Fold change /veh SNX32 (11753110_a_at) / RFU CDHR5 (11726645_a_at) / Fold change /veh CDHR5 (11726645_a_at) / RFU RCAN1 (11760418_a_at) / Fold change /veh RCAN1 (11760418_a_at) / RFU FAM167A (11723789_a_at) / Fold change /veh FAM167A (11723789_a_at) / RFU FAM26E (11764081_at) / Fold change /veh FAM26E (11764081_at) / RFU ISYNA1 (11749810_s_at) / Fold change /veh ISYNA1 (11749810_s_at) / RFU ACY1 (11761880_at) / Fold change /veh ACY1 (11761880_at) / RFU 11764098_at / Fold change /veh 11764098_at / RFU SAMD14 (11745864_x_at) / Fold change /veh SAMD14 (11745864_x_at) / RFU NPB (11741838_a_at) / Fold change /veh NPB (11741838_a_at) / RFU TMPRSS6 (11731388_a_at) / Fold change /veh TMPRSS6 (11731388_a_at) / RFU KRTAP10-2 (11738614_at) / Fold change /veh KRTAP10-2 (11738614_at) / RFU ARHGAP8 /// PRR5-ARHGAP8 (11727945_x_at) / Fold change /veh ARHGAP8 /// PRR5-ARHGAP8 (11727945_x_at) / RFU KRTAP5-7 /// NADSYN1 (11734609_at) / Fold change /veh KRTAP5-7 /// NADSYN1 (11734609_at) / RFU RASL12 (11751679_a_at) / Fold change /veh RASL12 (11751679_a_at) / RFU CDKN2B (11736163_a_at) / Fold change /veh CDKN2B (11736163_a_at) / RFU PRF1 (11729649_at) / Fold change /veh PRF1 (11729649_at) / RFU, ZNF638 /// ZNF638-IT1 / Fold change vs veh, ZNF638 /// ZNF638-IT1 / RFU, PANK3 / Fold change vs veh, PANK3 / RFU, SH3YL1 / Fold change vs veh, SH3YL1 / RFU, ZEB2 / Fold change vs veh, ZEB2 / RFU, NRIP1 / Fold change vs veh, NRIP1 / RFU, PTTG1IP / Fold change vs veh, PTTG1IP / RFU, CAPN2 / Fold change vs veh, CAPN2 / RFU, MED14 / Fold change vs veh, MED14 / RFU, SNORA58 / Fold change vs veh, SNORA58 / RFU, C1orf63 / Fold change vs veh, C1orf63 / RFU, LRRFIP1 / Fold change vs veh, LRRFIP1 / RFU, NDUFAF7 / Fold change vs veh, NDUFAF7 / RFU, SLC12A2 / Fold change vs veh, SLC12A2 / RFU, IBTK / Fold change vs veh, IBTK / RFU, ESF1 / Fold change vs veh, ESF1 / Fold change vs veh, TMEM50B / RFU, TAOK1 / Fold change vs veh, TAOK1 / RFU, ACBD3 / Fold change vs veh, ACBD3 / RFU, TMA16 / Fold change vs veh, TMA16 / RFU, RWDD3 / Fold change vs veh, RWDD3 / RFU, BCAT1 / Fold change vs veh, BCAT1 / RFU, EDEM3 / Fold change vs veh, EDEM3 / RFU, TMEM33 / Fold change vs veh, TMEM33 / RFU, WDR75 / Fold change vs veh, WDR75 / RFU, AHCTF1 / Fold change vs veh, AHCTF1 / RFU, TFRC / Fold change vs veh, TFRC / RFU, ZDHHC17 / Fold change vs veh, ZDHHC17 / RFU, NOM1 / Fold change vs veh, NOM1 / RFU, ARL8B / Fold change vs veh, ARL8B / RFU, ZBTB11 / Fold change vs veh, ZBTB11 / RFU, TAMM41 / Fold change vs veh, TAMM41 / RFU, KIAA1704 /// LOC100996395 / Fold change vs veh, KIAA1704 /// LOC100996395 / RFU, ING1 / Fold change vs veh, ING1 / RFU, TRMT61B / Fold change vs veh, TRMT61B / RFU, FUBP3 / Fold change vs veh, FUBP3 / RFU, TP53 / Fold change vs veh, TP53 / RFU, TNKS2 / Fold change vs veh, TNKS2 / RFU, ZFP14 / Fold change vs veh, ZFP14 / RFU, ACTR2 / Fold change vs veh, ACTR2 / RFU, PPP3R1 / Fold change vs veh, PPP3R1 / RFU, PIK3R1 / Fold change vs veh, PIK3R1 / RFU, HNRNPA1 / Fold change vs veh, HNRNPA1 / RFU, RNF170 / Fold change vs veh, RNF170 / RFU, ZNF28 / Fold change vs veh, ZNF28 / RFU, RNGTT / Fold change vs veh, RNGTT / RFU, OGT / Fold change vs veh, OGT / RFU, BRD1 / Fold change vs veh, BRD1 / RFU, MARS / Fold change vs veh, MARS / RFU, ZNF655 / Fold change vs veh, ZNF655 / RFU, FAHD1 / Fold change vs veh, FAHD1 / RFU, BDP1 / Fold change vs veh, BDP1 / RFU, LRRCC1 / Fold change vs veh, LRRCC1 / RFU, ARID1A / Fold change vs veh, ARID1A / RFU, ZNF146 / Fold change vs veh, ZNF146 / RFU, ZNF330 / Fold change vs veh, ZNF330 / RFU, GPN3 / Fold change vs veh, GPN3 / RFU, C9orf123 / Fold change vs veh, C9orf123 / RFU, N4BP2L2 / Fold change vs veh, N4BP2L2 / RFU, ARFIP1 / Fold change vs veh, ARFIP1 / RFU, FAM179B / Fold change vs veh, FAM179B / RFU, BCL10 / Fold change vs veh, BCL10 / RFU, UHRF1BP1L / Fold change vs veh, UHRF1BP1L / RFU, BET1 / Fold change vs veh, BET1 / RFU, CNOT2 / Fold change vs veh, CNOT2 / RFU, ZNF268 / Fold change vs veh, ZNF268 / Fold change vs veh, ZNF507 / RFU, DGCR2 / Fold change vs veh, DGCR2 / RFU, WDSUB1 / Fold change vs veh, WDSUB1 / Fold change vs veh, HSP90B1 /// MIR3652 / RFU, ADSS / Fold change vs veh, ADSS / RFU, GK / Fold change vs veh, GK / RFU, ZNF148 / Fold change vs veh, ZNF148 / RFU, TAF9 / Fold change vs veh, TAF9 / RFU, SLC1A5 / Fold change vs veh, SLC1A5 / RFU, SLMO2 / Fold change vs veh, SLMO2 / RFU, ABCC4 / Fold change vs veh, ABCC4 / RFU, LOC101060439 /// RAP1B / Fold change vs veh, LOC101060439 /// RAP1B / RFU, RFX7 / Fold change vs veh, RFX7 / RFU, GTPBP10 / Fold change vs veh, GTPBP10 / RFU, CNEP1R1 / Fold change vs veh, CNEP1R1 / RFU, BIVM-ERCC5 /// ERCC5 / Fold change vs veh, BIVM-ERCC5 /// ERCC5 / RFU, ILF3 / Fold change vs veh, ILF3 / RFU 11762660_at / Fold change /veh 11762660_at / RFU VCAN (11757783_s_at) / Fold change /veh VCAN (11757783_s_at) / RFU DDX43 (11728927_at) / Fold change /veh DDX43 (11728927_at) / RFU KRT8 (11758188_x_at) / Fold change /veh KRT8 (11758188_x_at) / RFU NKD1 (11759106_at) / Fold change /veh NKD1 (11759106_at) / RFU SRD5A1 (11742802_a_at) / Fold change /veh SRD5A1 (11742802_a_at) / RFU TPSAB1 /// TPSB2 (11721975_s_at) / Fold change /veh TPSAB1 /// TPSB2 (11721975_s_at) / RFU GSTM3 (11746129_a_at) / Fold change /veh GSTM3 (11746129_a_at) / RFU IL23R (11737362_x_at) / Fold change /veh IL23R (11737362_x_at) / RFU TMEM51 (11727254_a_at) / Fold change /veh TMEM51 (11727254_a_at) / RFU PIWIL2 (11732686_x_at) / Fold change /veh PIWIL2 (11732686_x_at) / RFU ORM1 (11744905_x_at) / Fold change /veh ORM1 (11744905_x_at) / RFU CCDC152 (11743942_at) / Fold change /veh CCDC152 (11743942_at) / RFU ECM1 (11717891_a_at) / Fold change /veh ECM1 (11717891_a_at) / RFU IL23R (11748794_a_at) / Fold change /veh IL23R (11748794_a_at) / RFU TNFAIP8L3 (11732012_x_at) / Fold change /veh TNFAIP8L3 (11732012_x_at) / RFU MBOAT4 (11741988_at) / Fold change /veh MBOAT4 (11741988_at) / RFU 11764193_at / Fold change /veh 11764193_at / RFU TMEM53 (11763286_at) / Fold change /veh TMEM53 (11763286_at) / RFU MAGEB2 (11727129_at) / Fold change /veh MAGEB2 (11727129_at) / RFU TMEM200A (11744735_a_at) / Fold change /veh TMEM200A (11744735_a_at) / RFU CCDC152 (11751479_a_at) / Fold change /veh CCDC152 (11751479_a_at) / RFU FAM211A (11726209_a_at) / Fold change /veh FAM211A (11726209_a_at) / RFU RGS16 (11746705_a_at) / Fold change /veh RGS16 (11746705_a_at) / RFU VCAN (11755009_s_at) / Fold change /veh VCAN (11755009_s_at) / RFU RHOB (11743442_s_at) / Fold change /veh RHOB (11743442_s_at) / RFU RGS16 (11720943_a_at) / Fold change /veh RGS16 (11720943_a_at) / RFU RGS16 (11720944_at) / Fold change /veh RGS16 (11720944_at) / RFU, VPS4B / Fold change vs veh, VPS4B / RFU, CREB1 / Fold change vs veh, CREB1 / RFU, DNAJC13 / Fold change vs veh, DNAJC13 / RFU, GNAQ / Fold change vs veh, GNAQ / RFU, CDK5R1 / Fold change vs veh, CDK5R1 / RFU, ZRANB3 / Fold change vs veh, ZRANB3 / RFU, CUL4A / Fold change vs veh, CUL4A / RFU, CCNY / Fold change vs veh, CCNY / RFU, UFL1 / Fold change vs veh, UFL1 / RFU, COG3 / Fold change vs veh, COG3 / RFU, DIAPH2 / Fold change vs veh, DIAPH2 / RFU, SKA2 / Fold change vs veh, SKA2 / RFU, AFF3 / Fold change vs veh, AFF3 / RFU, LMF1 / Fold change vs veh, LMF1 / RFU, IPO11 / Fold change vs veh, IPO11 / RFU, DFFB / Fold change vs veh, DFFB / RFU, FOXP1 / Fold change vs veh, FOXP1 / RFU, CARD8 / Fold change vs veh, CARD8 / RFU, STRN3 / Fold change vs veh, STRN3 / RFU, ADK / Fold change vs veh, ADK / RFU, RASSF2 / Fold change vs veh, RASSF2 / RFU, WIPF1 / Fold change vs veh, WIPF1 / RFU, LARP1B / Fold change vs veh, LARP1B / RFU, RASA1 / Fold change vs veh, RASA1 / RFU, RB1 / Fold change vs veh, RB1 / RFU, PPFIA1 / Fold change vs veh, PPFIA1 / RFU, MAT2A / Fold change vs veh, MAT2A / RFU, CCT5 / Fold change vs veh, CCT5 / RFU, WDR92 / Fold change vs veh, WDR92 / RFU, CUX1 / Fold change vs veh, CUX1 / RFU, TTC7A / Fold change vs veh, TTC7A / RFU, TMEM135 / Fold change vs veh, TMEM135 / RFU, DEPTOR / Fold change vs veh, DEPTOR / RFU, CPM / Fold change vs veh, CPM / RFU, DNAJB6 / Fold change vs veh, DNAJB6 / RFU, CACNA2D3 / Fold change vs veh, CACNA2D3 / RFU, DTX4 / Fold change vs veh, DTX4 / RFU, TFCP2 / Fold change vs veh, TFCP2 / RFU, GMCL1 /// GMCL1P1 / Fold change vs veh, GMCL1 /// GMCL1P1 / RFU, AEBP2 / Fold change vs veh, AEBP2 / RFU, SNHG1 /// SNORD22 /// SNORD25 /// SNORD26 /// SNORD27 /// SNORD28 /// SNORD29 /// SNORD31 / Fold change vs veh, SNHG1 /// SNORD22 /// SNORD25 /// SNORD26 /// SNORD27 /// SNORD28 /// SNORD29 /// SNORD31 / Fold change (Aza/veh), C12orf56 (ProbeSet 11735607_a_at) / Fold change (ACY-1035/veh), C12orf56 (ProbeSet 11735607_a_at) / Fold change (Aza/veh), FGFR1OP (ProbeSet 11751329_s_at) / Fold change (ACY-1035/veh), FGFR1OP (ProbeSet 11751329_s_at) / Fold change (Aza/veh), VPS36 (ProbeSet 11739960_a_at) / Fold change (ACY-1035/veh), VPS36 (ProbeSet 11739960_a_at) / RFU SYPL1 (11715823_x_at) / Fold change /veh SYPL1 (11715823_x_at) / RFU IGFBP7 (11715501_s_at) / Fold change /veh IGFBP7 (11715501_s_at) / RFU REEP3 (11722064_at) / Fold change /veh REEP3 (11722064_at) / RFU IGLL1 (11728026_x_at) / Fold change /veh IGLL1 (11728026_x_at): dose or concentration left out as unconfirmed
Settings: MV-4-11 cells, 48 hours

Compound: Nc1ccc(-c2cccs2)cc1NC(=O)c1ccc2c(c1)cc(C1CC1)n2CCN1CCOCC1 [ACY-1035]
- Fold change /veh PLEKHG5 (11743358_a_at): 1.02
